From EP0368624A2, “Method and composition for stabilizing and solubilizing latex reagents” (Biotrack, Inc., priority 1988, dated 1990)

What was measured:
[1] = Recovery of activity of antibody-latex reagent after drying on plastic (turbidimetric agglutination rate vs liquid control)
Excerpt: An agglutinating polymer was made by covalent attachment of about nine molecules of a peptide antigen to polyaspartic acid (M=15,000). A latex reagent was made by adsorption of a monoclonal antibody (which binds to the peptide antigen) to small latex particles (85 nm diameter) by adsorption. […] The mixture was aspirated into a temperature controlled flow cell of a spectrophotometer with a 1 cm optical path length and rapidly heated to […]. The change of apparent absorbance at 540 nm was then recorded over 20s.
Liquid was removed by exposure to desiccant under a variety of conditions (flowing air, flowing dry N₂, or vacuum).
Additives were added to the latex suspension at the indicated concentrations prior to drying. Recovery is given in Table 2 as a percentage of the activity of a non-dried (liquid) control. […]

[2] = Agglutination of dried hepatitis B virus core antigen coated latex in cartridge with serum samples; design: key: +: A positive reaction was recorded if the latex particles were agglutinated at the end of the track; settings: serum sample containing antibodies to hepatitis virus core antigen
Protocol: Antigen coated latex (prepared as in Example 5) (1 µL x 1.0% w/v suspended in 0·1M glycine pH 8·4 containing 0·1 6 M NaCl and 3 mM Sodium Azide either with or without 5% sucrose) was coated on the surface of piece of PETG plastic. After drying under a stream of dry nitrogen, the piece was incorporated into a cartridge by lamination of a track excised from double sided adhesive tape (4 mill thick) as described in USP 4,756,884. To test the activity of the dry reagent films, serum samples containing or not containing antibodies to hepatitis virus core antigen were applied to the sample application site and the reaction between the sample and the reagent film observed as the sample flowed over the film and the mixture was drawn down the part of the track distal from the sample application site. A positive reaction was recorded if the latex particles were agglutinated at the end of the track.

[3] = additive concentration 5 % in the aqueous latex suspension applied to the plastic

Compound	Activity (%) Ref = Liq [1, 3] [%]	also measured
O=C([O-])[C@H](O)[C@@H](O)[C@H](O)[C@H](O)CO.[Na+] [35D-Gluconic Acid-Na+, D-Gluconic Acid-Na+]	41	
OC[C@@H](O)C(O)[C@H](O)CO [D-arabitol]	101	
Cl.N[C@H]1C(O)O[C@H](CO)[C@@H](O)[C@@H]1O (stereo partly drawn) [D-glucosamine-HCl]	25	
OC[C@@H](O)[C@H](O)[C@@H](O)CO [D-xylitol]	92	
OC[C@H](O)C(O)[C@@H](O)CO [L-arabitol]	94	
OC[C@@H](O)[C@H](O)[C@@H](O)CO [L-xylitol]	94	
OC[C@@H](O)[C@@H](O)[C@H](O)[C@H](O)CO [Mannitol]		Activity (%) Ref = Liq ([1]; additive concentration 4 % in the aqueous latex suspension applied to the plastic): 0%
OC[C@@H](O)[C@@H](O)[C@@H](O)CO [Ribitol]	70	
OC[C@@H](O)[C@@H](O)[C@H](O)[C@@H](O)CO [Sorbitol]	5	
OC[C@H]1O[C@@](CO)(O[C@H]2O[C@H](CO)[C@@H](O)[C@H](O)[C@H]2O)[C@@H](O)[C@@H]1O [Sucrose]		Agglutination + sample [2]: +
